Experimental findings from PubChem BioAssay AID504313 (Emory University Molecular Libraries Screening Center, 2011) are described below.

Activity calls are given as the source filed them. No rule for the calls is given here. A value given as a limit tells only on which side of the number the result lay.

The assay addresses X-box-binding protein 1 (Homo sapiens) (UniProt P17861). As to the kind of experiment: XBP1 reporter suppression in cells – counter-screen, dose response (AID 504313).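 Also: CHO cells carrying an XBP1 reporter stimulated with tunicamycin; potency is for inhibition of the tunicamycin-induced reporter signal.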 Particulars: XBP1 reporter cell assay, percent of control. (In general: A counterscreen serves to expose hits that act by an unwanted route or on another target.)
Broadly, the IC50 is the point on the concentration scale where inhibition reaches its midpoint. Take `CCCCC(CC)Cn1c2nc3ccccc3nc2c2c(=N)oc(C)nc21` (configuration not stated): the IC50 was > 10 µM (inactive).
To `O=C(Nc1ccc(OC(F)F)cc1)Nc1cccc(C(F)(F)F)c1` belongs > 10 µM (inactive); to `Cc1cccc(Nc2nc(N)c([N+](=O)[O-])c(N3CC(C)CC(C)C3)n2)c1` (configuration not stated), “inactive”; to `O=C(CCl)Nc1cc(-c2ccccc2)nn1-c1ccccc1`, “inactive”.
In the case of `CC(C)Cn1c(N)c(C(=O)COC(=O)CC23CC4CC(CC(C4)C2)C3)c(=O)n(C)c1=O`, the IC50 entry was “inactive”.
Then `COc1ccc(-c2cnc(OC(C)(C)C)nc2OC(C)(C)C)cc1OC`, with “inactive”; and `Cc1ccc2sc(N(CCCN(C)C)C(=O)c3nc4ccccc4s3)nc2c1C`, with “inactive”.
To `Fc1ccc(-n2nnnc2-c2cnc(-c3cccs3)nc2C(F)(F)F)cc1` belongs “inactive”; to `CCCCn1c(=O)[nH]c(=O)c2c1nc(-c1ccc(OCCC)c(OCC)c1)n2C`, > 10 µM (inactive); to `COCCCn1c(N)c(C(=O)NCCC(C)C)c2nc3ccccc3nc21`, > 10 µM (inactive).
As for `CC(C)CCN(C(=O)Cc1ccc(Cl)c(Cl)c1)c1c(N)n(Cc2ccccc2)c(=O)[nH]c1=O`, the IC50 entry is “inactive”.
As for `Cn1c(=O)c([N+](=O)[O-])c(Cl)c2ccccc21`, the IC50 result was “inactive”.
Then `Cc1nn(-c2ccccc2Cl)c(Cl)c1/C=N/Nc1nc2ccccc2s1`, with below 0.16 µM.
Then `CC(C)(C)c1ccc(OCCNC(=S)Nc2ccccc2)cc1`, with “inactive”; and `CCc1ccc(OCCNC(=O)c2ccccc2SCc2ccccc2)cc1`, with > 10 µM (inactive); and `O=C(NCc1nc(-c2ccc(C(F)(F)F)cc2)no1)Nc1cc(Cl)cc(Cl)c1`, with “inactive”.
For `Cc1ccccc1Oc1cc(-n2ncc(Cl)c(Cl)c2=O)ncn1`, the IC50 was 1.75 µM.
Take `O=[N+]([O-])c1ccc(COc2ccc(-c3[nH]ncc3-c3ccccc3)c(O)c2)cc1`: the IC50 was > 10 µM (inactive).
Consider `CCCC(NCC(O)COc1ccc(-c2ccccc2)cc1)c1ccccc1` (configuration not stated), for which the IC50 result was “inactive”.
On to `CN1/C(=C/C(=O)c2nc(S(C)(=O)=O)ncc2Cl)C(C)(C)c2ccccc21`, for which the IC50 entry is “inactive”.
On to `OC(c1cccc(OCc2ccccc2)c1)c1nnc(-c2ccccc2)o1` (configuration not stated), for which the IC50 is > 10 µM (inactive).
Then `CCOc1ccc(-c2cc(CCCC(=O)NCc3ccc(C)cc3)no2)cc1`, with 0.29 µM; and `CCCCc1nc2ccccc2c(=O)n1NC(=O)c1c(O)c2ccccc2n(C)c1=O`, with > 10 µM (inactive).
`CN1/C(=C\C=C\C2=[N+](C)c3ccc4ccccc4c3C2(C)C)C(C)(C)c2ccccc21`: the IC50 is below 0.16 µM.
Then `C=C1C(=O)O[C@@H]2C[C@@H](C)[C@@H]3C=CC(=O)[C@@]3(C)[C@@H](OC(C)=O)[C@H]12`, with 2.2 µM.
Then `CCCCCCn1c(CN2CCN(Cc3ccccc3)CC2)nc2c1c(=O)n(C)c(=O)n2C`, with > 10 µM (inactive).
To `CC(C)(C)C(=O)NC(=S)NNC(=O)C(c1ccccc1)c1ccccc1` belongs > 10 µM (inactive); to `CCN1CCN(Cc2ccc(NC(=O)c3ccc(C)c(NC(=O)c4c[nH]c5cc(C(F)(F)F)ccc5c4=O)c3)cc2C(F)(F)F)CC1`, below 0.16 µM.
Take `CCN1/C(=C/C=C/C=C/c2sc3ccccc3[n+]2CC)Sc2ccccc21`: the IC50 was 2.4 µM.
Then `CN(C)c1ccc(-c2nc3ccccn3c2/N=C/c2ccc(Br)cc2)cc1`, with > 10 µM (inactive); and `CCCCCn1c(SCCC(C)C)nc2c1c(=O)[nH]c(=O)n2C`, with “inactive”; and `COc1cc(/C=C(/C#N)c2nc3ccccc3[nH]2)ccc1OCC(=O)Nc1ccccc1C(C)C`, with “inactive”.
`O=C1C(=C2SCCCS2)CC/C1=C\c1ccc(F)cc1`: the IC50 was 3.13 µM.
Consider `COc1ccc(C(=O)NNC(=O)c2ccccn2)cc1`, for which the IC50 entry is “inactive”.
To `CCOc1ccc(-n2c(SCC(=O)Nc3ccc(Br)cc3)nc3n[nH]c(C)c3c2=N)cc1` belongs > 10 µM (inactive); to `NC(=O)c1ccc(C(F)(F)F)n(Cc2ccc(Cl)cc2)c1=O`, “inactive”; to `O=C(Nc1ccccc1Cl)/C(Cl)=C(\Cl)S(=O)c1ccccc1` (configuration not stated), 2.4 µM.
Consider `COc1ccc(C(=O)c2c(C(F)(F)F)oc3c2C(=O)c2ccccc2C3=O)cc1`, for which the IC50 entry was “inactive”.
Then `O=S(=O)(Nc1ccccc1)c1ccc(Oc2ncc(C(F)(F)F)cc2Cl)cc1`, with 2.15 µM.
To `COc1ccc(Cn2c(SCc3ccccc3C)nc3cc(OC)c(OC)cc3c2=N)cc1` belongs > 10 µM (inactive); to `Cc1ccc(/C=N/N2C(=S)SC(C)(C)C2N(O)C(=O)Nc2ccc([N+](=O)[O-])cc2)cc1` (configuration not stated), 3.54 µM.
With `Cc1ccc2nc(NC(=O)C3CCN(S(=O)(=O)c4cc([N+](=O)[O-])ccc4Cl)CC3)sc2c1`, the IC50 result is “inactive”.
Then `CC(C)(C)C(=O)c1no[n+]([O-])c1/C(=N/O)C(C)(C)C`, with > 10 µM (inactive); and `COc1ccc(Cn2c(C)c(C)c(C#N)c2NC(=O)Nc2ccc(Cl)cc2)cc1`, with > 10 µM (inactive); and `Cc1nn(CCC#N)c2nc(-c3ccccc3)cc(C(F)(F)F)c12`, with “inactive”.
Regarding `CCOC(=O)c1c(CN2CCOCC2)n(-c2ccccc2)c2cc(Br)c(O)cc12`, the IC50 is > 10 µM (inactive).
Then `COc1ccc(N=c2oc3ccc(OC)cc3cc2-c2nc3ccccc3[nH]2)cc1`, with “inactive”; and `OCCCNc1cc(-c2ccnc(Nc3cccc(Cl)c3)n2)ccn1`, with below 0.16 µM.
`CCOc1cccc(CN2CCN(c3cccc(C(F)(F)F)c3)CC2)c1O`: the IC50 is > 10 µM (inactive).
To `COc1ccc(Cn2c(SCc3cc(C)ccc3C)nc3cc(OC)c(OC)cc3c2=N)cc1` belongs “inactive”; to `CC(C)Oc1ccc(CNC(=O)CC(c2ccccc2)c2cc(Cl)ccc2O)cc1` (configuration not stated), > 10 µM (inactive).
To `Cc1ccc(NC2=C/C(=N\S(=O)(=O)c3cccs3)c3ccccc3C2=O)c(C)c1` belongs 0.55 µM; to `COC(=O)Oc1ccc(/C=N/NC(=O)CSCc2ccccc2Br)cc1OC`, > 10 µM (inactive).
As for `CCOC(=O)/C(=C\c1ccc(OC(F)F)cc1)C1=Nn2c(nnc2-c2ccc(Cl)cc2)SC1`, the IC50 was 4.7 µM.
Take `C=C1C(=O)O[C@@H]2C[C@@H](C)[C@@H]3C4OC4C(=O)[C@@]3(C)[C@@H](O)[C@H]12` (some centres not stated): the IC50 was 4.96 µM.
For the compound `CC1CCN(c2nc3ccc(C(=O)O)cc3s2)CC1`, the IC50 entry was “inactive”.
Take `C=C(C)COc1ccc(-c2n[nH]c(C)c2Oc2ccccc2OC)c(O)c1`: the IC50 result is “inactive”.
Regarding `Nc1ccc2c(c1)C(=O)C(=O)c1ccccc1-2`, the IC50 result is “inactive”.
For `O=C(CCCOc1ccc(Cl)cc1Cl)N/N=C\C1CCCCC1`, the IC50 entry is “inactive”.
For `Cc1ccc(C2(c3ccc(C)cc3)CC2C(=O)Nc2ccc([N+](=O)[O-])cc2O)cc1` (configuration not stated), the IC50 result was “inactive”.
As to `COc1ccccc1C(=O)NC(=Nc1nc2ccccc2o1)NC(=O)c1ccccc1OC`, the IC50 entry was “inactive”.
Then `O=C(NCc1ccccc1Cl)c1ccc(S(=O)(=O)Nc2cccc(C(F)(F)F)c2)cc1`, with > 10 µM (inactive).
